Test system: ExTaq DNA Polymerase
Assay: PCR with ExTaq DNA Polymerase in the presence of cationic complexes
Assay type: biochemical
Conditions: for Amount of amplified DNA relative to No Addition (=1), ExTaq: 100 pg E. coli JM109 genomic DNA, primers Eco1/Eco2, 30 cycles 98°C 5 s–68°C 1 min, FM-BIO 100
Description: Using hexaamminecobalt (III) chloride ([Co(NH3)6]Cl3) (manufactured by Sigma), tris(ethylenediamine)cobalt (III) chloride ([Co(C2H8N2)3]Cl3) (manufactured by Aldrich), or tris(ethylenediamine)rhodium (III) trichloride•trihydrate ([Rh(C2H8N2)3]Cl3.3H2O) (manufactured by Aldrich), the effects on the amplification reaction by various kinds of DNA polymerases were examined. As the DNA polymerases, TaKaRa Taq DNA Polymerase (hereinafter referred to as “Taq DNA Polymerase” manufactured by Takara Shuzo Co., Ltd.), Pyrobest DNA Polymerase (manufactured by Takara Shuzo Co., Ltd.) and Ex Taq DNA Polymerase (manufactured by Takara Shuzo Co., Ltd.) were used.
A reaction mixture comprising Escherichia coli JM109 genomic DNA as a template, primers Eco1 and Eco2 as a primer pair, and DNA polymerase was prepared, and PCR was carried out. The compositions of the reaction mixture for each enzyme are as follows.
a reaction mixture comprising 5 μl of 10-fold concentrated buffer for TaKaRa ExTaq DNA Polymerase (manufactured by Takara Shuzo Co., Ltd.), 0.2 mM each of dATP, dCTP, dGTP and dTTP, 100 pg of Escherichia coli JM109 genomic DNA, 1.25 U of TaKaRa EX-Taq DNA Polymerase, and 10 pmol each of primers Eco1 and Eco2 (a final volume being 50 μl).
Further, an aqueous solution of the above-mentioned complexes each so as to have a final concentration of 50 μM, 100 μM, or 200 μM was added to the above reaction mixture.
The reaction was carried out in Fast mode by using TaKaRa PCR Thermal Cycler Personal (manufactured by Takara Shuzo Co., Ltd.). The reaction conditions are as follows. When using Taq DNA Polymerase and Pyrobest DNA Polymerase, the reaction in 30 cycles was carried out for each of these reaction mixtures, wherein one cycle of reaction comprises a process consisting of 98° C., 5 seconds—68° C., 2 minutes, and when using ExTaq DNA Polymerase, the reaction in 30 cycles was carried out for each of these reaction mixtures, wherein one cycle of reaction comprises a process consisting of 98° C., 5 seconds—68° C., 1 minute. After the termination of the reaction, 5 μl of the resulting reaction mixture was subjected to electrophoresis on 2% agarose gel containing ethidium bromide in an amount of 0.00005%. The gel after the electrophoresis was subjected to ultraviolet irradiation to visualize the band ascribed to the amplified product, whereby an amplified fragment was confirmed. The amount of amplified DNA was numerically explained by using a fluorescent image analyzer FM-BIO 100 (manufactured by Takara Shuzo Co., Ltd.). […]
After the termination of the reaction, 5 μL of the resulting reaction mixture was subjected to electrophoresis on 2% agarose gel containing ethidium bromide in an amount of 0.00005%. The gel after the electrophoresis was subjected to ultraviolet irradiation to visualize the band ascribed to the amplified product, whereby an amplified fragment was confirmed.
The DNA polymerases used and the composition for the reaction mixture were similar to those in Example 17, except for the cationic complex, where in cases of using Taq DNA Polymerase and Pyrobest DNA Polymerase, hexaamminecobalt (III) chloride was added so as to have a final concentration of 100 μM, or in a case of using ExTaq DNA Polymerase, hexaamminecobalt (III) chloride was added so as to have a final concentration of 50 μM, respectively. Further, the amount of template DNA was added so as to be 1 pg, 5 pg, 10 pg, 100 pg, or 1 ng, respectively.
The reaction was carried out in Fast mode by using TaKaRa PCR Thermal Cycler Personal. The reaction conditions are as follows. When using Taq DNA Polymerase and Pyrobest DNA Polymerase, the reaction in 30 cycles was carried out, wherein one cycle of reaction comprises a process consisting of 98° C., 5 seconds—68° C., 2 minutes. When using ExTaq DNA Polymerase, the reaction in 30 cycles was carried out, wherein one cycle of reaction comprises a process consisting of 98° C., 5 seconds—68° C., 1 minute. […]

| SMILES | Amount of amplified DNA relative to No Addition (=1), ExTaq (complex 50 μM) | Amount of amplified DNA relative to No Addition (=1), ExTaq (complex 100 μM) | Amount of amplified DNA relative to No Addition (=1), ExTaq (complex 200 μM) | Amplification with one-half the usual enzyme amount versus usual amount without addition (ExTaq 0.625 U + 50 μM complex vs 1.25 U without addition) | Primer amount with which a fragment can still be amplified (ExTaq, 50 μM complex, primers 2–20 pmol tested, no amplification without addition) [pmol] | Amount of template DNA at which amplification was still possible (ExTaq, 50 μM complex, templates 1 pg–1 ng tested, no amplification at 1 pg without addition) [pg] | Amplification in low-magnesium reaction mixture (ExTaq, 1.25 mM magnesium chloride (usual 2 mM), 10 μM complex, no amplification without addition) |
| --- | --- | --- | --- | --- | --- | --- | --- |
| NCCN.NCCN.NCCN.O.O.O.[Cl][Rh]([Cl])[Cl] [[Rh(H2NCH2CH2NH2)3]Cl3, tris(ethylenediamine)rhodium (III) trichloride•trihydrate] | 1.3 | 1.5 | 1.7 |  |  |  |  |
| N.N.N.N.N.N.[Cl-].[Cl-].[Cl-].[Co+3] [[Co(NH3)6]Cl3, hexaamminecobalt (III) chloride] | 1.9 | 1.9 |  | almost the same level | 2.5 | 1 | allowed to amplify |
| NCCN.NCCN.NCCN.[Cl-].[Cl-].[Cl-].[Co+3] [[Co(H2NCH2CH2NH2)3]Cl3, tris(ethylenediamine)cobalt (III) chloride] | 2.0 | 2.0 |  |  |  |  |  |
